Source: PubChem BioAssay (NCI)
Several values for one entry are separate records, joined by “and”; a condition that tells them apart may be missing. Equal entries are not always repeated.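 Tested at 5 concentrations; 48 h exposure; 96-well plates; endpoints linearly interpolated, else capped at highest concentration. The concentration for 50% growth inhibition is given as GI50. TGI marks complete inhibition of growth.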 Starred links: 1 amine or outer side, 2 acyl side, 3 side chain; linkers in the order of their positions; H or OH if unused. Positions of bridges follow the written chain, without caps; N, C: chain ends. Non-standard residues stand in square brackets, D forms with d. Residues, ends and D or L forms follow the SMILES beside them. Chains are numbered I, II in the order given. Actinocin(9to1) = Cc1c2oc3c(C)ccc(C(=O)[*:1])c3nc-2c(C(=O)[*:2])c(N)c1=O; NMeY = CN[CH](Cc1ccc(O)cc1)C(=O)O; Sar = CNCC(=O)O

Assays:
Assay in all cases: inhibition of tumour cell growth, NCI panel, 48 h
786-0 renal = tested on: 786-0 renal
COLO 205 colon = tested on: COLO 205 colon
HL-60(TB) leukemia = tested on: HL-60(TB) leukemia
LOX IMVI melanoma = tested on: LOX IMVI melanoma
RXF 393 renal = tested on: RXF 393 renal
SK-MEL-28 melanoma = tested on: SK-MEL-28 melanoma
SK-OV-3 ovarian = tested on: SK-OV-3 ovarian
SR leukemia = tested on: SR leukemia
TK-10 renal = tested on: TK-10 renal
UO-31 renal = tested on: UO-31 renal

SMILES: O=C1Nc2cccc(Cl)c2/C1=C\c1c(Cl)nc2n1CCS2
- TGI (786-0 renal): > 100 µM
- TGI (COLO 205 colon): > 100 µM
- TGI (HL-60(TB) leukemia): > 100 µM
- TGI (LOX IMVI melanoma): > 100 µM
- TGI (RXF 393 renal): > 100 µM
- TGI (SK-MEL-28 melanoma): > 100 µM
- TGI (SK-OV-3 ovarian): > 100 µM
- TGI (SR leukemia): > 100 µM
- TGI (TK-10 renal): > 100 µM
- TGI (UO-31 renal): > 100 µM

SMILES: CCOC1(OCC)C2C=CC1C(COS(=O)(=O)c1ccc(C)cc1)C2COS(=O)(=O)c1ccc(C)cc1 (configuration not stated)
- TGI (786-0 renal): > 100 µM
- TGI (COLO 205 colon): 50.7 µM
- TGI (HL-60(TB) leukemia): 42.4 µM
- TGI (LOX IMVI melanoma): > 100 µM
- TGI (RXF 393 renal): > 100 µM
- TGI (SK-MEL-28 melanoma): > 100 µM
- TGI (SK-OV-3 ovarian): > 100 µM
- TGI (SR leukemia): 58.6 µM
- TGI (TK-10 renal): > 100 µM
- TGI (UO-31 renal): > 100 µM

SMILES: COc1cc(C2c3cc4c(cc3OC(N3CCCCC3)C2C)OCO4)cc(OC)c1O (configuration not stated)
- TGI (786-0 renal): 27.7 µM
- TGI (COLO 205 colon): 38.6 µM
- TGI (HL-60(TB) leukemia): 15.4 µM
- TGI (LOX IMVI melanoma): > 59.8 µM
- TGI (RXF 393 renal): > 100 µM
- TGI (SK-MEL-28 melanoma): 27.3 µM
- TGI (SK-OV-3 ovarian): 19.9 µM
- TGI (SR leukemia): > 44.5 µM
- TGI (TK-10 renal): 38.5 µM
- TGI (UO-31 renal): 34.8 µM

SMILES: O=C(Nc1ccccc1)c1cc(S(=O)(=O)NC2=NC(c3ccccc3)c3cc(Cl)ccc3N2)c(SSc2cc(Cl)c(C(=O)Nc3ccccc3)cc2S(=O)(=O)NC2=NC(c3ccccc3)c3cc(Cl)ccc3N2)cc1Cl (configuration not stated)
- TGI (786-0 renal): > 100 µM
- TGI (COLO 205 colon): > 100 µM
- TGI (HL-60(TB) leukemia): > 53.9 µM
- TGI (LOX IMVI melanoma): > 100 µM
- TGI (RXF 393 renal): > 100 µM
- TGI (SK-MEL-28 melanoma): > 100 µM
- TGI (SK-OV-3 ovarian): > 100 µM
- TGI (SR leukemia): > 26.7 µM
- TGI (TK-10 renal): > 100 µM
- TGI (UO-31 renal): > 100 µM

SMILES: CO/N=C(\C(=O)OC(=NC1CCCCC1)NC1CCCCC1)c1csc(NC(c2ccccc2)(c2ccccc2)c2ccccc2)n1
- TGI (786-0 renal): > 10 µM
- TGI (COLO 205 colon): > 10 µM
- TGI (HL-60(TB) leukemia): > 10 µM
- TGI (LOX IMVI melanoma): > 10 µM
- TGI (RXF 393 renal): > 10 µM
- TGI (SK-MEL-28 melanoma): > 10 µM
- TGI (SK-OV-3 ovarian): > 10 µM
- TGI (SR leukemia): > 10 µM
- TGI (TK-10 renal): > 10 µM
- TGI (UO-31 renal): > 10 µM

SMILES: COc1cc(Nc2nc3ccccc3nc2C(=O)O)cc(OC)c1OC
- TGI (786-0 renal): > 100 µM
- TGI (COLO 205 colon): > 100 µM
- TGI (HL-60(TB) leukemia): > 100 µM
- TGI (LOX IMVI melanoma): > 100 µM
- TGI (RXF 393 renal): > 100 µM
- TGI (SK-MEL-28 melanoma): > 100 µM
- TGI (SK-OV-3 ovarian): > 100 µM
- TGI (SR leukemia): > 100 µM
- TGI (TK-10 renal): 78.6 µM
- TGI (UO-31 renal): > 100 µM

SMILES: COc1cc(OC)c2nc(C)c(CCCl)c(Cl)c2c1
- TGI (786-0 renal): > 100 µM
- TGI (COLO 205 colon): > 100 µM
- TGI (HL-60(TB) leukemia): > 100 µM
- TGI (LOX IMVI melanoma): > 100 µM
- TGI (RXF 393 renal): > 100 µM
- TGI (SK-MEL-28 melanoma): > 100 µM
- TGI (SK-OV-3 ovarian): > 100 µM
- TGI (SR leukemia): > 100 µM
- TGI (TK-10 renal): > 100 µM
- TGI (UO-31 renal): > 100 µM

SMILES: COc1cccc(C2c3cc4c(cc3OC(N3CCCCC3)C2C)OCO4)c1O (configuration not stated)
- TGI (786-0 renal): 26.2 µM
- TGI (COLO 205 colon): 25.5 µM
- TGI (HL-60(TB) leukemia): 5.92 µM
- TGI (LOX IMVI melanoma): 41.7 µM
- TGI (RXF 393 renal): 18.7 µM
- TGI (SK-MEL-28 melanoma): 73.2 µM
- TGI (SK-OV-3 ovarian): > 79.1 µM
- TGI (SR leukemia): 11.8 µM
- TGI (TK-10 renal): 62.8 µM
- TGI (UO-31 renal): 81.1 µM

SMILES: Cc1c2oc3c(C)ccc(C(=O)NC4C(=O)NC(C(C)C)C(=O)N5CCCC5C(=O)N(C)CC(=O)N(C)C(Cc5ccc(O)cc5)C(=O)OC4C)c3nc-2c(C(=O)NC2C(=O)NC(C(C)C)C(=O)N3CCCC3C(=O)N(C)CC(=O)N(C)C(Cc3ccc(O)cc3)C(=O)OC2C)c(N)c1=O (configuration not stated) (I: TVP[Sar][NMeY] / II: TVP[Sar][NMeY]; ester I:1-I:C, II:1-II:C; linker I:N-II:N via Actinocin(9to1); configuration not given here)
- TGI (786-0 renal): > 1 µM
- GI50 (COLO 205 colon): 0.0175 µM and 0.00568 µM
- TGI (COLO 205 colon): 0.216 µM and 0.0889 µM
- TGI (HL-60(TB) leukemia): 0.0947 µM
- GI50 (LOX IMVI melanoma): 0.00436 µM and 0.000966 µM
- TGI (LOX IMVI melanoma): > 1 µM
- GI50 (RXF 393 renal): 0.0635 µM and 0.0229 µM
- TGI (RXF 393 renal): 0.307 µM and 0.0871 µM
- GI50 (SK-MEL-28 melanoma): 0.0248 µM and 0.00701 µM
- TGI (SK-MEL-28 melanoma): 0.205 µM and 0.0748 µM
- GI50 (SK-OV-3 ovarian): 0.16 µM and 0.075 µM
- TGI (SK-OV-3 ovarian): > 1 µM
- TGI (SR leukemia): > 0.514 µM
- GI50 (TK-10 renal): 0.117 µM
- TGI (TK-10 renal): > 1 µM
- GI50 (UO-31 renal): > 0.726 µM and 0.0874 µM
- TGI (UO-31 renal): > 1 µM and 0.459 µM

SMILES: Cc1ccc(C2SCC(=O)N2c2ccc(-n3c(-c4ccccc4)nc4ccccc4c3=O)cc2)cc1 (configuration not stated)
- TGI (786-0 renal): 74.1 µM
- TGI (COLO 205 colon): > 100 µM
- TGI (HL-60(TB) leukemia): 64.4 µM
- TGI (LOX IMVI melanoma): 48.5 µM
- TGI (RXF 393 renal): 91.3 µM
- TGI (SK-MEL-28 melanoma): > 100 µM
- TGI (SK-OV-3 ovarian): 40.5 µM
- TGI (SR leukemia): > 100 µM
- TGI (TK-10 renal): > 100 µM
- TGI (UO-31 renal): 59.1 µM

SMILES: BrC1=C(Br)C2(SCCS2)[C@H]2C[C@@H]1c1ccccc12
- TGI (786-0 renal): > 100 µM
- TGI (COLO 205 colon): > 100 µM
- TGI (HL-60(TB) leukemia): > 100 µM
- TGI (LOX IMVI melanoma): > 100 µM
- TGI (RXF 393 renal): > 100 µM
- TGI (SK-MEL-28 melanoma): > 100 µM
- TGI (SK-OV-3 ovarian): > 100 µM
- TGI (SR leukemia): 75 µM
- TGI (TK-10 renal): > 100 µM
- TGI (UO-31 renal): > 62.3 µM

SMILES: O=c1[nH]nnc2c1sc1ncccc12
- TGI (786-0 renal): > 100 µM
- TGI (COLO 205 colon): > 100 µM
- TGI (HL-60(TB) leukemia): > 100 µM
- TGI (LOX IMVI melanoma): > 100 µM
- TGI (RXF 393 renal): > 100 µM
- TGI (SK-MEL-28 melanoma): > 100 µM
- TGI (SK-OV-3 ovarian): > 100 µM
- TGI (SR leukemia): > 100 µM
- TGI (TK-10 renal): > 100 µM
- TGI (UO-31 renal): > 100 µM

SMILES: CN1C(=O)c2ccccc2OC12C=Cc1c(ccc3ccccc13)O2 (configuration not stated)
- TGI (786-0 renal): 25.7 µM
- TGI (COLO 205 colon): 10.8 µM
- TGI (HL-60(TB) leukemia): 17.6 µM
- TGI (LOX IMVI melanoma): 22.9 µM
- TGI (RXF 393 renal): 31.1 µM
- TGI (SK-MEL-28 melanoma): > 67.6 µM
- TGI (SK-OV-3 ovarian): 27.4 µM
- TGI (SR leukemia): > 100 µM
- TGI (TK-10 renal): > 61 µM
- TGI (UO-31 renal): 35.8 µM

SMILES: Cc1[nH]c(=O)nc2nc3ccc(Cl)cc3c(NCCNCCO)c12
- TGI (786-0 renal): 21.2 µM
- TGI (COLO 205 colon): 21.6 µM
- TGI (HL-60(TB) leukemia): > 100 µM
- TGI (LOX IMVI melanoma): 21 µM
- TGI (RXF 393 renal): 28.5 µM
- TGI (SK-MEL-28 melanoma): 31.8 µM
- TGI (SK-OV-3 ovarian): 23.9 µM
- TGI (SR leukemia): > 100 µM
- TGI (TK-10 renal): 33.1 µM
- TGI (UO-31 renal): 20.7 µM

SMILES: CC1CC(OP(=O)(OCc2ccccc2)OCc2ccccc2)[C@@H](OCc2ccccc2)C(OCc2ccccc2)C1OCc1ccccc1 (some centres not stated)
- TGI (786-0 renal): > 100 µM
- TGI (COLO 205 colon): > 100 µM
- TGI (HL-60(TB) leukemia): > 100 µM
- TGI (LOX IMVI melanoma): > 100 µM
- TGI (RXF 393 renal): 9.8 µM
- TGI (SK-MEL-28 melanoma): > 100 µM
- TGI (SK-OV-3 ovarian): > 100 µM
- TGI (SR leukemia): > 100 µM
- TGI (TK-10 renal): > 100 µM
- TGI (UO-31 renal): > 100 µM

SMILES: COC(=O)C1=C(C(=O)OC)N(c2ccc(OC)cc2[N+](=O)[O-])C(c2ccc(C)cc2)=CC1c1ccc(OC)cc1OC (configuration not stated)
- TGI (786-0 renal): > 94 µM
- TGI (COLO 205 colon): 20.8 µM
- TGI (HL-60(TB) leukemia): > 44.3 µM
- TGI (LOX IMVI melanoma): 6.75 µM
- TGI (RXF 393 renal): 50 µM
- TGI (SK-MEL-28 melanoma): > 100 µM
- TGI (SK-OV-3 ovarian): 73.3 µM
- TGI (SR leukemia): 27.7 µM
- TGI (TK-10 renal): > 100 µM
- TGI (UO-31 renal): > 31.6 µM
